According to US20090221532A1 (priority 2005, published 2009):

How the values were obtained:
[1] = Stella reports, cited from earlier work
[2] = Population pharmacokinetic model (linear 5-compartment, NONMEM) of venous plasma concentrations; parameters: species or system human; details: population PK model; lean body weight covariate
[3] = Pharmacokinetic/pharmacodynamic models (probabilistic and continuous) for level of sedation (MOAA/S score); parameters: species or system human; details: subjects older than 65
patients = details: anesthetic induction doses; Bryson et al.; cited from earlier work

Row | SMILES | Stability at pH levels suitable for making pharmaceutical formulations [1] | Breakdown in vivo under physiological conditions ([1]; administered intravenously) | Increase of central volume of propofol generated from the prodrug [2] | Increase of central volume of the prodrug [2] | Increase of clearance of the prodrug [2] | Lowering of effect site concentration at which a given MOAA/S score is attained, versus younger subjects ([3]; continuous model) | Lowering of effect site concentration at which a given MOAA/S score is attained, versus younger subjects ([3]; probabilistic model) | Patients with respiratory consequences, including a reduction in tidal volume and apnea (patients)
1 | CC(C)c1cccc(C(C)C)c1OCOP(=O)([O-])[O-].[Na+].[Na+] [propofol prodrug, O-phosphonooxymethyl propofol disodium salt] | good stability | quickly breaks down in vivo | 2.5 % per kg of LBW over 55 kg | 1.8 % per kg of LBW over 55 kg | 1.4 % per kg of LBW over 55 kg | about 25% | about 33% | –
2 | CC(C)c1cccc(C(C)C)c1O [propofol] | – | – | – | – | – | – | – | up to 83%
